Reference: ChEMBL document CHEMBL4840317, “Saccharochelins A-H, Cytotoxic Amphiphilic Siderophores from the Rare Marine Actinomycete Saccharothrix sp. D09” (J Nat Prod, 2021)
The source made the active and inactive calls. No cut-off for these calls is given here.

How the values were obtained:
[1] = system: Staphylococcus aureus; test: Antibacterial activity against Staphylococcus aureus ATCC 29213 assessed as inhibition of bacterial growth incubated for 18 hrs by Kirby-Bauer disk diffusion method; format: functional
[2] = system: A549; test: Cytotoxicity against human A549 cells assessed as reduction in cell viability by MTT assay; format: functional, cell-based
[3] = molecular target: Angiotensin-converting enzyme 2 (Homo sapiens) (UniProt Q9BYF1); test: Inhibition of ACE2 (unknown origin) upto 100 ug/ml incubated for 15 mins followed by substrate addition by fluorescence based analysis; conditions: dose microg/ml <=100, time 15.0 min
[4] = system: HepG2; test: Cytotoxicity against human HepG2 cells assessed as reduction in cell viability by MTT assay; format: functional, cell-based
[5] = system: HCT-116; test: Cytotoxicity against human HCT-116 cells assessed as reduction in cell viability by MTT assay; format: functional, cell-based
[6] = system: Escherichia coli; test: Antibacterial activity against Escherichia coli ATCC 35218 assessed as inhibition of bacterial growth incubated for 18 hrs by Kirby-Bauer disk diffusion method; format: functional
[7] = system: Pseudomonas aeruginosa; test: Antibacterial activity against Pseudomonas aeruginosa ATCC 27853 assessed as inhibition of bacterial growth incubated for 18 hrs by Kirby-Bauer disk diffusion method; format: functional
[8] = system: Bacillus subtilis; test: Antibacterial activity against Bacillus subtilis ATCC 6633 assessed as inhibition of bacterial growth incubated for 18 hrs by Kirby-Bauer disk diffusion method; format: functional
[9] = system: MCF7; test: Cytotoxicity against human MCF7 cells assessed as reduction in cell viability by MTT assay; format: functional, cell-based
[10] = Binding affinity to Fe3+ assessed as formation of Fe3+-compound complex at 5 to 640 uM in presence of FeCl3 incubated for 3 hrs by Chrome Azurol S assay; conditions: dose 5-640 µM
[11] = Binding affinity to Fe3+ assessed as formation of Fe3+-compound complex coordinate ratio of 1:1 measured under neutral pH by UV-visible spectrophotometric titration analysis

Angiotensin-converting enzyme 2 (Homo sapiens), sequence (Q9BYF1 18-805 limits assumed): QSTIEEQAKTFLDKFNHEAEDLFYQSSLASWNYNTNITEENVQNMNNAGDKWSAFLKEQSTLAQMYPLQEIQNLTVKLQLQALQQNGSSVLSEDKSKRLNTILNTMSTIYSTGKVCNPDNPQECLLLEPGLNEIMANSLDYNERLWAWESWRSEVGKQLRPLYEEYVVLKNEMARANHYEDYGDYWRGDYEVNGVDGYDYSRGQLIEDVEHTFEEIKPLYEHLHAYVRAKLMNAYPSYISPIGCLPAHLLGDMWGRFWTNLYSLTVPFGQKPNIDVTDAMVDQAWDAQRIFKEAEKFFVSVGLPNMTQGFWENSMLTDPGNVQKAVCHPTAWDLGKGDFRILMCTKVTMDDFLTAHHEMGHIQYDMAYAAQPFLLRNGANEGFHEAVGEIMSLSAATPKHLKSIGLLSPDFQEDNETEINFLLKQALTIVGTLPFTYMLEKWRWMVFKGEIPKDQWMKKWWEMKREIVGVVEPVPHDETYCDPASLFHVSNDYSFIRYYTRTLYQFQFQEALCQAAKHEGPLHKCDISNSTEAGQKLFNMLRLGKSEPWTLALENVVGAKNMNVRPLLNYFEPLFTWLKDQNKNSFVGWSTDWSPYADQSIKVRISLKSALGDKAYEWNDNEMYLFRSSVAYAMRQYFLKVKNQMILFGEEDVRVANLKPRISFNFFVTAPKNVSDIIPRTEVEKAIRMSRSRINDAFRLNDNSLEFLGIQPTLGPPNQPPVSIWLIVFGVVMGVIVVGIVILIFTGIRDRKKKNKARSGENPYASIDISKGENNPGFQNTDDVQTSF

Compound	MIC [1]	inhibition [3]	MIC [6]	MIC [7]	MIC [8]	Activity [10]	Activity [11]	IC50 [2]	IC50 [4]	IC50 [5]	IC50 [9]
CC(=O)N(O)CCCCCNC(=O)CCC(=O)N(O)CCCCCNC(=O)CCC(=O)N(O)CCCCCN						Active					
COc1cccc2c1C(=O)c1c(O)c3c(c(O)c1C2=O)C[C@@](O)(C(=O)CO)C[C@@H]3O[C@H]1C[C@H](N)[C@H](O)[C@H](C)O1 [DOXORUBICIN]								0.9 µM	1.3 µM	1.1 µM	
CC(C)CCCCCCCCCC(=O)N[C@@H](CCCN(O)C=O)C(=O)N[C@@H](CO)C(=O)N(O)CCC[C@@H]1NC(=O)[C@H](CCCN(O)C=O)NC1=O	> 100 µM	inactive	> 100 µM	> 100 µM	> 100 µM	Active	Active	> 20 µM	7.7 µM	> 20 µM	> 20 µM
CC(C)CCCCCCCCC(=O)N[C@@H](CCCN(O)C=O)C(=O)N[C@@H](CO)C(=O)N(O)CCC[C@@H]1NC(=O)[C@H](CCCN(O)C=O)NC1=O	> 100 µM	inactive	> 100 µM	> 100 µM	> 100 µM			13 µM	> 20 µM	9.7 µM	> 20 µM
CC(C)CCCCCCCCCCCC(=O)N[C@@H](CCCN(O)C=O)C(=O)N[C@@H](CO)C(=O)N(O)CCC[C@@H]1NC(=O)[C@H](CCCN(O)C=O)NC1=O	> 100 µM	inactive	> 100 µM	> 100 µM	> 100 µM	Active		8.1 µM	2.3 µM	> 20 µM	> 20 µM
CCCCCCCCCCCCC(=O)N[C@@H](CCCN(O)C=O)C(=O)N[C@@H](CO)C(=O)N(O)CCC[C@@H]1NC(=O)[C@H](CCCN(O)C=O)NC1=O	> 100 µM	inactive	> 100 µM	> 100 µM	> 100 µM	Active		3.4 µM	10 µM	10 µM	> 20 µM

More lines, main results first:

MIC [1]	inhibition [3]	MIC [6]	MIC [7]	MIC [8]	Activity [10]	Activity [11]	Compound	IC50 [2]	IC50 [4]	IC50 [5]	IC50 [9]
> 100 µM	inactive	> 100 µM	> 100 µM	> 100 µM			CCCCCCCCCCCCCCC(=O)N[C@@H](CCCN(O)C=O)C(=O)N[C@@H](CO)C(=O)N(O)CCC[C@@H]1NC(=O)[C@H](CCCN(O)C=O)NC1=O	3.3 µM	4.3 µM	4.8 µM	5.9 µM
> 100 µM	inactive	> 100 µM	> 100 µM	> 100 µM	Active		CC(C)CCCCCCCCCCC(=O)N[C@@H](CCCN(O)C=O)C(=O)N[C@@H](CO)C(=O)N(O)CCC[C@@H]1NC(=O)[C@H](CCCN(O)C=O)NC1=O	14 µM	> 20 µM	> 20 µM	> 20 µM
> 100 µM	inactive	> 100 µM	> 100 µM	> 100 µM			CCCCCCCCCCCCCC(=O)N[C@@H](CCCN(O)C=O)C(=O)N[C@@H](CO)C(=O)N(O)CCC[C@@H]1NC(=O)[C@H](CCCN(O)C=O)NC1=O	> 20 µM	> 20 µM	> 20 µM	> 20 µM
> 100 µM	inactive	> 100 µM	> 100 µM	> 100 µM	Active		CCCCCCCCCCCC(=O)N[C@@H](CCCN(O)C=O)C(=O)N[C@@H](CO)C(=O)N(O)CCC[C@@H]1NC(=O)[C@H](CCCN(O)C=O)NC1=O	11 µM	> 20 µM	11 µM	17 µM
